{"source": "patent US11638760B2", "about": "“Pyrrolobenzodiazepine antibody conjugates” (priority 2017, dated 2023)", "origin": "cited, not measured here", "conditions": "Phase I clinical evaluation"}
{"smiles": "C=C1C[C@H]2C=Nc3cc(OCCCOc4cc5c(cc4OC)C(=O)N4CC(=C)C[C@H]4C=N5)c(OC)cc3C(=O)N2C1", "note": "[SJG-136]", "values": [{"measurement": "maximum tolerated dose", "result": 45, "unit": "μg/m"}]}
